Patent publication US7517652B2, “Methods of diagnosing tumors using the G-protein coupled receptor (GPCR), RAI-3” (Bristol-Myers Squibb Company, priority 2002, dated 2009)
Entries after “also recorded” stand apart in the source; their conditions may differ. d = 2'-deoxy (DNA); r = 2'-OH (RNA)

Assays:
[1] = system: RAI-3 mRNA; assay: RAI-3 mRNA by real-time PCR after treatment of cells with ATRA; type: cell-based, human; conditions: 24 hours
Protocol: 1×10^6 cells of each of the HEK 293, H292 and BEAS-2B cell lines were seeded into two (replicate) 100 mM cell culture dishes containing 20 ml of RPMI complete medium which contained L-glutamine, 10% fetal bovine serum and 1% Penicillin-Streptomycin (Gibco/BRL). To one 100 mM dish, 0.2 μl of DMSO were added. To the other 100 mM dish, 0.2 μl of 10 mM ATRA (Sigma R-2625, St. […] After 24 hours at 37° C. and 5% CO2, cells were lysed with Buffer RLT (Qiagen, Hilden, Germany) and total RNA was harvested pursuant to the Rneasy Midi Kit protocol (Qiagen, Hilden, Germany). RAI-3 messenger RNA levels were measured by Real-time PCR as described below in Example 1(N).
SYBR Green PCR amplification was performed on an ABI PRISM 7700 Sequence Detection System (PE Applied Biosystems, Foster City, Calif.), and the reaction was carried out using SYBR Green PCR Core reagents (PE Applied Biosystems). Real time PCR was carried out at 40 cycles with the following parameters: 95° C. for 15 seconds and 60° C. for 60 seconds, with a pre-incubation period of 50° C. for 2 minutes, followed by 95° C. for 10 minutes. All amplification was normalized to β-actin gene amplification in the linear portion of the amplification curves. Data were then expressed as a fold increase over a reference tissue or cell type.

[2] = system: muc5AC protein; assay: muc5AC ELISA of supernatants of H292 cells exposed to cigarette smoke-bubbled media; type: cell-based, human; conditions: transfected H292 cells, CS-10 for 72 hours, triplicate; listed as RAI-3 siRNA 1864+1865
Protocol: At 24 hours post siRNA transfection, the media was changed to serum-free RPMI media containing 20 mM Glutamine and 1% Penicillin-Streptomycin and incubated at 37° C., 5% CO2, for 24 hours. At 48 hours post transfection, the serum-free RPMI media was removed from the cells and replaced with 1.0 ml of cigarette smoke-bubbled medium (i.e., CS-10, the equivalent of 10 cigarettes per 500 ml of cell culture medium) for 72 hours (96 hours post-transfection) or control. At 72 hours (96 hours post-transfection), 100 ul×3 of supernatent from each well in the 24-well plate was transferred to 96-well plate for ELISA analysis.
A muc5AC coating antibody, Gastric Mucin Ab-1 45M1 (NeoMarkers, Fremont, Calif.) was diluted 1:1000 to 1 ug/ml final in 50 mM NaHCO3 pH 9 and coated onto a standard 96-well ELISA plate overnight at room temperature with rotating. The next day the plate was washed three times with 1×PBS/0.05% Tween 20 (PBS-T) and blocked with 200 ul of blocking buffer, 1×PBS/1% BSA final (30% solution, Sigma-Aldrich Co. Saint Louis, Mo.). […] The next day the wells were washed three times with PBS-T. Muc5AC protein in the supernatent was detected with Peroxidase-Labeled Lectin from Glycine Max (Sigma-Aldrich, St. Louis, Mo.) diluted to 1ug/ml in 1×PBS/1% BSA final. […] Color reactions were stopped with 100 μl/well 1 N. H2SO4 and the absorbency at 450 nm-650 nm was measured.

Compound	RAI-3 mRNA levels ([1]; H292 cells (high basal level of RAI-3 expression))	RAI-3 mRNA levels ([1]; HEK 293, BEAS-2B and H292 cells, ATRA 1 μM)	average ELISA signal, muc5AC protein in the supernatant [2]
CC1=C(/C=C/C(C)=C/C=C/C(C)=C/C(=O)O)C(C)(C)CCC1 [ATRA, all-trans retinoic acid]	modest, but measurable increase	increase; also recorded: induced	–
RAI-3 siRNA reagent 1864+1865: annealed double stranded siRNA r(GGUGCAGGACUCCAACAGG)d(TT) and r(CCUGUUGGAGUCCUGCACC)d(TT), SEQ ID NO:94 and 95 (chain 1 GGUGCAGGACUCCAACAGGTT; chain 2 CCUGUUGGAGUCCUGCACCTT; sugars from the 5' end r19 d2, backbone not given here)	–	–	significantly reduced
